According to US8901315B2, “Thienopyrazole derivative having PDE7 inhibitory activity” (Daiichi Sankyo Company, Limited, priority 2004, dated 2014):
Counter-ions that a name gives are not always drawn.

What was measured:
[1] = molecular target: PDE 7 (phosphodiesterase VII) (Homo sapiens (Human), UniProt Q13946); test: PDE 7 inhibiting effect (3H-cAMP hydrolysis, PDE 7 active fraction from MOLT-4 cells); type: biochemical; conditions: PDE 7 fraction from MOLT-4 cells, 0.064 μM cAMP, 10 μM rolipram, 2 hours at 25° C.; read-out: PDE7 IC50
Chain of PDE 7 (phosphodiesterase VII) (Q13946 whole entry): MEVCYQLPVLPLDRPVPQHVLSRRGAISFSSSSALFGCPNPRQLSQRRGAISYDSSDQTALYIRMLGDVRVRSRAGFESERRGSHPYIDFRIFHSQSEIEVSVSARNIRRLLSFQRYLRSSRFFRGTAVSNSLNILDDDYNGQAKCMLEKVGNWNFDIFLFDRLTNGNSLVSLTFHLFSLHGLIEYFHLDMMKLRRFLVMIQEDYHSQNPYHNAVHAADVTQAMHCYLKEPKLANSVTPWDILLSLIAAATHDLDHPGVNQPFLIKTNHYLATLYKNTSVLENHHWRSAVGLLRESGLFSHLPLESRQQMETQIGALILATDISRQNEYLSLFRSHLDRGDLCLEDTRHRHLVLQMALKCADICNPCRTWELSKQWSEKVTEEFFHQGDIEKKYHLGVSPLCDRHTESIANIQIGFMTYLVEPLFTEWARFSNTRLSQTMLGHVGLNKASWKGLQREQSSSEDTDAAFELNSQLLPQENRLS
Method in brief: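 PDE7 taken from the soluble fraction of human MOLT-4 T cells (homogenised in pH 7.5 Tris buffer, 100,000×G spin), partially purified on HiTrap Q with a 0–0.8 M NaCl gradient. Inhibition measured as ³H-cAMP hydrolysis, with product separated using Sephadex-QAE in 10 mM HEPES-Na pH 7.0.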

[2] = molecular target: PDE 4 (phosphodiesterase IV); test: PDE 4 inhibiting effect (3H-cAMP hydrolysis, PDE 4 active fraction from Balb/c mouse liver); type: biochemical; conditions: PDE 4 fraction from Balb/c mice liver, 0.064 μM cAMP, 2 hours at 25° C.; read-out: PDE4 IC50
Method in brief: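 PDE4 was taken from the soluble liver fraction of male Balb/c mice (12 weeks), purified on DEAE sepharose with a sodium acetate gradient. Inhibition was measured as hydrolysis of 3H-cAMP. The reaction was followed by Sephadex-QAE treatment in HEPES-Na pH 7.0.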

Row | Structure (SMILES) | IC50 [1] [nM] | IC50 [2] [nM]
1 | Cc1nn(C2CCCCC2)c2sc(C(=O)N[C@H]3CC[C@H](C#N)CC3)cc12 [Example 209, N-(4-Cyanocyclohexyl)-1-cyclohexyl-3-methyl-1H-thieno[2,3-c]-pyrazole-5-carboxamide] | 77 | 7400
2 | Cc1nn(C2CCCCC2)c2sc(C(=O)N[C@H]3CC[C@H](C(=O)O)C3)cc12 [Example 227, (1S,3S)-3-{[(1-Cyclohexyl-3-methyl-1H-thieno[2,3-c]pyrazol-5-yl)-carbonyl]amino}cyclopentanecarboxylic acid] | 56 | 10000
3 | Cc1nn(C2CCCCC2)c2sc(C(=O)NCCN3CCN(C)C(=O)C3=O)cc12 [Example 228, 1-Cyclohexyl-3-methyl-N-[2-(4-methyl-2,3-dioxo-1-piperazinyl)ethyl]-1H-thieno[2,3-c]pyrazole-5-carboxamide] | 51 | 5800
4 | Cc1nn(C2CCCCC2)c2sc(C(=O)N[C@H]3CC[C@H](C(=O)N(C)C)C3)cc12 [Example 230, 1-Cyclohexyl-N-{(1S,3S)-3-[(dimethylamino)carbonyl]cyclopentyl}-3-methyl-1H-thieno[2,3-c]pyrazole-5-carboxamide HCl salt] | 23 | 7000
5 | Cc1nn(C2CCCCC2)c2sc(C(=O)NC3CCN(C(=O)N(C)C)CC3)cc12 [Example 235, 1-Cyclohexyl-N-{1-[(dimethylamino)carbonyl]-4-piperidinyl}-3-methyl-1H-thieno[2,3-c]pyrazole-5-carboxamide] | 17 | 2800
6 | Cc1nn(C2CCCCC2)c2sc(C(=O)N[C@H]3CC[C@H](C(=O)N4CCOCC4)CC3)cc12 [Example 236, 1-Cyclohexyl-3-methyl-N-[4-(4-morpholinylcarbonyl)cyclohexyl]-1H-thieno[2,3-c]pyrazole-5-carboxamide] | 20 | 2700
7 | Cc1nn(C2CCCCC2)c2sc(C(=O)N[C@H]3CC[C@H](C(=O)N4CCC(O)CC4)CC3)cc12 [Example 239, 1-Cyclohexyl-N-{4-[(4-hydroxy-1-piperidinyl)carbonyl]cyclohexyl}-3-methyl-1H-thieno[2,3-c]pyrazole-5-carboxamide] | 15 | 2600
8 | Cc1nn(C2CCCCC2)c2sc(C(=O)N[C@H]3CC[C@H](CN4C(=O)CNC4=O)CC3)cc12 [Example 247, 1-Cyclohexyl-N-{4-[(2,5-dioxo-1-imidazolidinyl)methyl]cyclohexyl}-3-methyl-1H-thieno[2,3-c]pyrazole-5-carboxamide] | 6.5 | 1400
9 | Cc1nn(C2CCOCC2)c2sc(C(=O)Nc3ccc(C(=O)N(C)C)cc3)cc12 [Example 255, N-{4-[(Dimethylamino)carbonyl]phenyl}-3-methyl-1 tetrahydro-2H-pyran-4-yl-1H-thieno[2,3-c]pyrazole-5-carboxamide] | 89 | 12000
10 | Cc1nn(C2CCCCC2)c2sc(C(=O)Nc3ccc(N4CCNC4=O)nc3)cc12 [Example 256, 1-Cyclohexyl-3-methyl-N-[6-(2-oxo-1-imidazolidinyl)-3-pyridinyl]-1H-thieno[2,3-c]pyrazole-5-carboxamide] | 2 | 810
11 | Cc1nn(C2CCCCC2)c2sc(C(=O)N[C@H]3CC[C@H](CO)C3)cc12 [Example 257, 1-Cyclohexyl-N-[(1S,3S)-3-(hydroxymethyl)cyclopentyl]-3-methyl-1H-thieno[2,3-c]pyrazole-5-carboxamide] | 68 | 8300
12 | Cc1nn(C2CCCCC2)c2sc(C(=O)N[C@H]3CC[C@H](CN4C(=O)CNC4=O)C3)cc12 [Example 258, 1-Cyclohexyl-N-{(1S,3S)-3-[(2,5-dioxo-1-imidazolidinyl)methyl]cyclopentyl}-3-methyl-1H-thieno[2,3-c]pyrazole-5-carboxamide] | 15 | 4700
13 | Cc1nn(C2CCOCC2)c2sc(C(=O)Nc3ccc(N4C(=O)CN(C)C4=O)cc3)cc12 [Example 260, 3-Methyl N-[4-(3-methyl-2,5-dioxo-1-imidazolidinyl)phenyl]-1-tetrahydro-2H-pyran-4-yl-1H-thieno[2,3-c]pyrazole-5-carboxamide] | 37 | 4500
14 | Cc1nn(C2CCOCC2)c2sc(C(=O)Nc3ccc(N4CCNC4=O)nc3)cc12 [Example 261] | 28 | 1900
15 | Cc1nn(C2CCCCC2)c2sc(C(=O)Nc3ccc(N4CC[C@@H](O)C4)cc3)cc12 [Example 262, 1-Cyclohexyl-N-{4-[(3R)-3-hydroxypyrrolidinyl]phenyl}-3-methyl-1H-thieno[2,3-c]pyrazole-5-carboxamide] | 28 | 3800
16 | Cc1nn(C2CCCCC2)c2sc(C(=O)Nc3ccc(N4CC[C@@H](O)C4)c(F)c3)cc12 [Example 263, 1-Cyclohexyl-N-{3-fluoro-4-[(3R)-3-hydroxypyrrolidinyl]phenyl}-3-methyl-1H-thieno[2,3-c]pyrazole-5-carboxamide] | 54 | 3500

Next, values leading:

Row | IC50 [1] [nM] | IC50 [2] [nM] | Structure (SMILES)
17 | 81 | 6300 | Cc1nn(C2CCCCC2)c2sc(C(=O)Nc3cccc(S(=O)(=O)N4CCC(O)CC4)c3)cc12 [Example 264, 1-Cyclohexyl-N-{3-[(4-hydroxy-1-piperidinyl)sulfonyl]phenyl}-3-methyl-1H-thieno[2,3-c]pyrazole-5-carboxamide]
18 | 88 | 4800 | Cc1nn(C2CCOCC2)c2sc(C(=O)Nc3ccc(N4CCC(O)CC4)c(F)c3)cc12 [Example 268, N-[3-Fluoro-4-(4-hydroxy-piperidinyl)phenyl]-3-methyl-1-tetrahydro-2H-pyran-4-yl-1H-thieno[2,3-c]pyrazole-5-carboxamide]
19 | 15 | 1800 | Cc1nn(C2CCCCC2)c2sc(C(=O)N[C@H]3CC[C@H](N4CCOC4=O)CC3)cc12 [Example 270, 1-Cyclohexyl-3-methyl-N-[trans-4-(2-oxo-1,3-oxazolidin-3-yl)-cyclohexyl]-1H-thieno[2,3-c]pyrazole-5-carboxamide]
20 | 8.9 | 2100 | Cc1nn(C2CCCCC2)c2sc(C(=O)N[C@H]3CC[C@H](N4CCNC4=O)CC3)cc12 [Example 271, 1-Cyclohexyl-3-methyl-N-[trans-4-(2-oxo-1-imidazolidinyl)-cyclohexyl]-1H-thieno[2,3-c]pyrazole-5-carboxamide]
21 | 14 | 1600 | Cc1nn(C2CCCCC2)c2sc(C(=O)N[C@H]3CC[C@H](N4C(=O)CCC4=O)CC3)cc12 [Example 273, 1-Cyclohexyl-N-[trans-4-(2,5-dioxo-1-pyrrolidinyl)cyclohexyl]-3-methyl-1H-thieno[2,3-c]pyrazole-5-carboxamide]
22 | 9.9 | 1700 | Cc1nn(C2CCCCC2)c2sc(C(=O)N[C@H]3CC[C@H](N4CCCS4(=O)=O)CC3)cc12 [Example 274, 1-Cyclohexyl-N-[trans-(1,1-dioxide-2-isothiazolidinyl)cyclohexyl]-3-methyl-1H-thieno[2,3-c]pyrazole-5-carboxamide]
23 | 4 | 1200 | Cc1nn(C2CCCCC2)c2sc(C(=O)N[C@H]3CC[C@H](NC(=O)N(C)CC(=O)OCc4ccccc4)CC3)cc12 [Example 275, Benzyl [{[(trans-4-{[(1 cyclohexyl-3-methyl-1H-thieno[2,3-c]pyrazol-5-yl)carbonyl]amino}cyclohexyl)amino]carbonyl}(methyl)amino]acetate]
24 | 32 | 7800 | Cc1nn(C2CCCCC2)c2sc(C(=O)NCCN3C(=O)CN(C)C3=O)cc12 [Example 277, 1-Cyclohexyl-3-methyl-N-[2-(3-methyl-2,5-dioxo-1-imidazolidinyl)-ethyl]-1H-thieno[2,3-c]pyrazole-5-carboxamide]
25 | 17 | 1900 | Cc1nn(C2CCCCC2)c2sc(C(=O)N[C@H]3CC[C@H](N4CCN(C)C4=O)CC3)cc12 [Example 280]
26 | 60 | 6100 | Cc1nn(C2CCCCC2)c2sc(C(=O)NCCN3CCN(C)C3=O)cc12 [Example 302, 1-Cyclohexyl-3-methyl-N-[2-(3-methyl-2-oxo-imidazolidinyl)ethyl]-1H-thieno[2,3-c]pyrazole-5-carboxamide]
27 | 66 | 6800 | Cc1nn(C2CCCCC2)c2sc(C(=O)NCCN3C(=O)CNC3=O)cc12 [Example 305, 1-Cyclohexyl-N-[2-(2,5-dioxo-1-imidazolidinyl)ethyl]-3-methyl-1H-thieno[2,3-c]pyrazole-5-carboxamide]
28 | 97 | 15000 | CCN1C(=O)CN(CCNC(=O)c2cc3c(C)nn(C4CCCCC4)c3s2)C1=O [Example 316, 1-Cyclohexyl-N-[2-(3-ethyl-2,4-dioxo-1-imidazolidinyl)ethyl]-3-methyl-1H-thieno[2,3-c]pyrazole-5-carboxamide]
29 | 67 | 12000 | Cc1nn(C2CCCCC2)c2sc(C(=O)NCCN3CC(=O)N(C)C3=O)cc12 [Example 317, 1-Cyclohexyl-3-methyl-N-[2-(3-methyl-2,4-dioxo-1-imidazolidinyl)-ethyl]-1H-thieno[2,3-c]pyrazole-5-carboxamide]
30 | 34 | 4000 | Cc1nn(C2CCCCC2)c2sc(C(=O)N[C@H](C)CN3C(=O)CNC3=O)cc12 [Example 325, 1-Cyclohexyl-N-[(1R)-2-(2,5-dioxo-1-imidazolidinyl)-1-methylethyl]-3-methyl-1H-thieno[2,3-c]pyrazole-5-carboxamide]
